Consider one compound from patent US20210095293A1, “METHODS OF TREATING CANCERS WITH GPR132 INHIBITORS” (The Board of Regents of the University of Texas System, priority 2016, published 2021).

In the assay the test system is macrophages. Kind of assay: M2 marker expression in macrophages (Western blot, RT-qPCR, flow cytometry). In kind it is cell-based, mouse. How it is done: After blocking with 10% BSA for 10 min, cells were incubated with anti-CD206 (Rabbit polyclonal, Abcam) or anti-Gpr132 (Rabbit polyclonal, Sigma) antibodies (1:100) for 30 min at 4° C., washed with cold PBS, and then incubated with FITC-conjugated secondary antibodies (1:100) for 30 min at 4° C. After washing twice using cold PBS, cells were analyzed by flow cytometer (Becton Dickinson). RNA was isolated from cells or mouse tissues using Trizol (Invitrogen) following the manufacturer's instructions. RNA (200-500 ng) was first treated with RNase-free DNase I using the DNA-free kit (Ambion) to remove all genomic DNA, and then reverse-transcribed into cDNA using an ABI High Capacity cDNA RT Kit (Invitrogen). The cDNA was analyzed using real-time quantitative PCR (SYBR Green, Invitrogen) with an Applied Biosystems 7900 Sequence Detection System. Each reaction was performed in triplicate in a 384-well format. The expression of each gene was normalized by that of mouse ribosomal protein L19. Samples of 20 μg protein were applied to SDS polyacrylamide gels. After protein transfer, membranes were incubated with antibodies for […] (rabbit polyclonal, Santa Cruz Biotechnology), CD206, Gpr132, or β-actin (mouse monoclonal, Sigma) (1:1000) overnight at 4° C. Membranes were washed, and then incubated with HRP-conjugated secondary antibodies (1:1000) for 1 hr at room temperature before signal detection by chemiluminescence (Pierce). Densitometric quantification was performed by Image-Pro Plus 6.0 software (Media Cybernetics). PathScan Akt Signaling Antibody Array (Cell Signaling) was incubated with macrophage proteins and analyzed following kit instructions.

`CC(O)C(=O)O` (centres unmarked) [lactate]: the “expression of M2 markers (CD206, GM-CSF, CCL17) in WT macrophages” value (exogenous lactate 5 mM 24 hrs (Western) or 25 mM 6 hrs (RT-qPCR), WT) is on record as “increased”. In addition, the “effects on M2 markers in Gpr132-KO macrophages” value (exogenous lactate, Gpr132-KO) is listed as “absent or largely attenuated”.
